Measured values from patent US10450306B2, “Isoxazole analogs as FXR agonists and methods of use thereof” (Enanta Pharmaceuticals, Inc., priority 2016, dated 2019).

Target: T1, human FXR (NR1H4) (Homo sapiens, UniProt Q96RI1)
T1 construct: host or cells: CHO (Chinese hamster ovary) reporter cells
T1 sequence (Q96RI1 1-486): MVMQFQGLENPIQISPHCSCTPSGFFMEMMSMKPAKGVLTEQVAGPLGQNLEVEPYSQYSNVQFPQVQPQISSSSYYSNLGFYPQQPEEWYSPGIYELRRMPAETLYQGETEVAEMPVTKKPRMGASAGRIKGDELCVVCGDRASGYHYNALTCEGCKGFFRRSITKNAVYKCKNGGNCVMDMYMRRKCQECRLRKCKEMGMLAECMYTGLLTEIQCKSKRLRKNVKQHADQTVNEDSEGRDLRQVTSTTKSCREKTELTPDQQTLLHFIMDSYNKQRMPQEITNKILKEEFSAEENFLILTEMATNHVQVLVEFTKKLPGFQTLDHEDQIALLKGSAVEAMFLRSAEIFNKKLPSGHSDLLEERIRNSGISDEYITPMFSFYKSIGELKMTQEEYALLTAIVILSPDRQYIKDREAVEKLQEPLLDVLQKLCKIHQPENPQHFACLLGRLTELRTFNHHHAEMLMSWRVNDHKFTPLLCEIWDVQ
Assay: Human FXR (NR1H4) Assay: Gal4 promoter driven luciferase reporter transactivation in CHO cells (Indigo Bioscience kit IB00601); for Efficacy (%): efficacy normalized to CDCA set as 100%
Format: cell-based
Conditions: for Emax: CHO, read-out: Efficacy (%); for EC50: Human FXR (NR1H4) reporter assay, potency ranges
Summary of the method: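 CHO reporter cells expressing human FXR with an FXR-responsive promoter-driven luciferase were treated with compound dose series at 0.2% DMSO for 22 h at 37 °C. Luciferase activity was then read by luminescence as the measure of FXR activation.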

Row | Compound | Emax | EC50
1 | O=C(O)c1ccc(N2C3CCC2CC(NCc2c(-c4c(Cl)cccc4Cl)noc2C2CC2)C3)c(F)c1 [Example 122, 4-((1R,3r,5S)-3-(((5-cyclopropyl-3-(2,6-dichlorophenyl)isoxazol-4-yl)methyl)amino)-8-azabicyclo[3.2.1]octan-8-yl)-3-fluorobenzoic acid] | 90% | 1 to 100 nM
2 | CC(C)Oc1cc(C(=O)NS(=O)(=O)C2CC2)cc2sc(N3CCC(NCc4c(-c5c(Cl)cccc5Cl)noc4C4CC4)CC3)nc12 [Example 400-3] | 104% | 1 to 100 nM
3 | COC(=O)c1cc(C)c2nc(N3C4CCC3CC(NCc3c(-c5ccccc5C(F)(F)F)noc3C3CC3)C4)sc2c1 (centres unmarked) [Example 1404] | 46% | 100 to 1000 nM
4 | CC1(S(=O)(=O)NC(=O)c2ccc3nc(N4C5CCC4CC(NCc4c(-c6c(F)cccc6F)noc4C4CC4)C5)sc3c2)CC1 (centres unmarked) [Example 1421] | 101% | 1 to 100 nM
5 | COC(=O)c1ccc2cc(N3[C@@H]4CC[C@H]3C[C@@H](NCc3c(-c5c(Cl)cccc5Cl)noc3C3CC3)C4)ccc2c1 [Example 49, methyl 6-((1R,3R,5S)-3-(((5-cyclopropyl-3-(2,6-dichlorophenyl)isoxazol-4-yl)methyl)amino)-8-azabicyclo[3.2.1]octan-8-yl)-2-naphthoate] | 135% | 1 to 100 nM
6 | CCOC(=O)c1ccc2nc(NC3CCN(Cc4c(-c5c(Cl)cccc5Cl)noc4C4CC4)CC3)sc2c1 [Example 183] | 119% | > 1000 nM
7 | O=C(NS(=O)(=O)C1CCCC1)c1ccc2nc(N3C4CCC3CC(NCc3c(-c5c(Cl)cccc5Cl)noc3C3CC3)C4)sc2c1 (centres unmarked) [Example 231] | 277% | < 1 nM
8 | CC1(S(=O)(=O)NC(=O)c2cc(OC(F)F)c3nc(N4C5CCC4CC(NCc4c(-c6c(Cl)cccc6Cl)noc4C4CC4)C5)sc3c2)CC1 [Example 323, 2-((1R,3r,5S)-3-(((5-cyclopropyl-3-(2,6-dichlorophenyl)isoxazol-4-yl)methyl)amino)-8-azabicyclo[3.2.1]octan-8-yl)-4-(difluoromethoxy)-N-((1-methylcyclopropyl)sulfonyl)benzo[d]thiazole-6-carboxamide] | 150% | < 1 nM
9 | COC(=O)c1cc(OC(C)C)c2nc(N3C4CCC3CC(NCc3c(-c5ccccc5OC(F)(F)F)noc3C3CC3)C4)sc2c1 (centres unmarked) [Example 413] | 118% | 1 to 100 nM
10 | CC1(S(=O)(=O)NC(=O)c2cc(F)c3nc(N4C5CCC4CC(NCc4c(-c6ccccc6OC(F)(F)F)noc4C4CC4)C5)sc3c2)CC1 (centres unmarked) [Example 900-2] | 109% | 1 to 100 nM
11 | COC(=O)c1cc(OC(C)C)c2nc(N3C4CCC3CC(NCc3c(-c5c(F)cccc5F)noc3C3CC3)C4)sc2c1 (centres unmarked) [Example 1423] | 78% | > 1000 nM
12 | COC(=O)c1cc(F)c2nc(N3CCC(NCc4c(-c5ccccc5OC(F)(F)F)noc4C4CC4)CC3)sc2c1 [Example 641] | 40% | 100 to 1000 nM
13 | O=C(O)c1cc(F)c2nc(N3[C@@H]4CC[C@H]3C[C@@H](NCc3c(-c5c(Cl)cccc5Cl)noc3C3CC3)C4)sc2c1 [Example 4, 2-((1R,3R,5S)-3-(((5-cyclopropyl-3-(2,6-dichlorophenyl)isoxazol-4-yl)methyl)amino)-8-azabicyclo[3.2.1]octan-8-yl)-4-fluorobenzo[d]thiazole-6-carboxylic acid] | 169% | < 1 nM
14 | O=C(NS(=O)(=O)C1CC1)c1cnc2nc(N3C4CCC3CC(NCc3c(-c5c(Cl)cccc5Cl)noc3C3CC3)C4)sc2n1 (centres unmarked) [Example 400-25] | 72% | 1 to 100 nM
15 | CC(C)Oc1cc(C(=O)NS(=O)(=O)C2CC2)cc2sc(N3CCC(NCc4c(-c5ccccc5OC(F)(F)F)noc4C4CC4)CC3)nc12 [Example 900-5] | 68.5% | 100 to 1000 nM
16 | O=C(O)c1cc(C2CC2)c2nc(N3C4CCC3CC(NCc3c(-c5c(F)cccc5F)noc3C3CC3)C4)sc2c1 (centres unmarked) [Example 1419] | 107% | 1 to 100 nM
